We go through 54 compounds from patent US9216964B2, “Hedgehog pathway modulators” (Novartis AG, priority 2008, dated 2015).

In the assay the test system is hedgehog signaling pathway. Put plainly: Gli-Luc Reporter Assay for Hh Pathway Inhibition (TMHh-12 cells, pTA-8×Gli-Luc reporter). The assay is classed as cell-based, Mouse. On the procedure: Compounds of the present invention are assayed to evaluate their capacity to inhibit the hedgehog signaling pathway.
Gli-Luc Reporter Assay for Hh Pathway Inhibition
Mouse TM3 cells (obtained from American Type Culture Collection, ATCC, Manassas, Va.) are cultured in DMEM/F12 medium (Gibco/Invitrogen, Carlsbad, Calif.) supplemented with 5% heat inactivated horse serum and 2.5% FBS (Gibco/Invitrogen, Carlsbad, Calif.), 50 unit/mL penicillin and 50 μg/mL of streptomycin (Gibco/Invitrogen, Carlsbad, Calif.) at […] with 5% CO2 in air atmosphere. TM3 cells were transfected with pTA-8×Gli-Luc reporter plasmid. A stably transfected clone termed TMHh-12 was selected. […] To evaluate the IC50s of the antagonists, 8000 TMHh-12 cells were plated into each wells in 384-well plates with 50% DMEM/F12 medium supplemented with 2% FBS. After 12 hours, Hh pathway is activated by adding recombinant mouse Shh protein (expressed in E. coli, 8 μg/mL) or by adding Smo agonists. The testing compounds are added into plates with different concentrations. After 48 hours, the firefly luciferase luciferase activities are assayed with the Bright-Glo™ Luciferase Assay System (Promega, Madison, Wis.). The IC50 is measured when the effect of the compound reduces the luminescence signal by 50%. Toxicity of these compounds are evaluated in TM3 cells using CellTiter Glo assays or by TM3-Luc cell line (a TM3 cell stably transfected with a constitutive luciferase expression vector).

Setting [1] is: enzymatic and cellular assays for the inhibition of hedgehog signaling pathways, read-out: IC50 Ranges.
Where [2] appears, read: Mus musculus, TMHh12, Ag1.5 1 nM, read-out: Hedgehog Inhibition IC50 (nM) (Ag1.5 1 nM).
Setting [3] is: Mus musculus, TMHh12, enzymatic and cellular assays for the inhibition of hedgehog signaling pathways, read-out: IC50 Ranges.

Where two headings read alike, the source gives them in different places.

`[O-][S+]1CCC(N2CCc3c(cccc3Nc3ccc(Cl)c(-c4ncc(-c5ccccc5)[nH]4)c3)C2)CC1` (centres unmarked) [Compound 1]: the IC50 under setting [1] was 0.001 to 1 nM.
Regarding `CC(CO)(CO)C(=O)N1CCc2c(cccc2Nc2ccc(Cl)c(-c3ncc(-c4ccccc4)[nH]3)c2)C1` [Compound 2], the 50% inhibitory concentration (IC50) is 0.45 nM under setting [2] and 0.001 to 1 nM under setting [3].
The corresponding values for `O=S1(=O)CCC(N2CCc3c(cccc3Nc3ccc(Cl)c(-c4ncc(-c5ccccc5)[nH]4)c3)C2)CC1` [Compound 3] are 0.06 nM and 0.001 to 1 nM.
Turning to `CS(=O)(=O)N1CCc2c(cccc2Nc2ccc(Cl)c(-c3ncc(-c4ccccc4)[nH]3)c2)C1` [Compound 4], under setting [3], the IC50 was 0.001 to 1 nM.
Consider `Cc1ccc(Nc2cccc3c2CCN(S(C)(=O)=O)C3)cc1-c1nc2ccccc2[nH]1` [Compound 5], for which the half-inhibitory concentration (IC50) reads like this: under setting [2], 0.1 nM; under setting [3], 0.001 to 1 nM.
Take `CCN1CCC(N2CCc3c(cccc3Nc3ccc(Cl)c(-c4ncc(-c5ccccc5)[nH]4)c3)C2)CC1` [Compound 6]: the IC50 under setting [3] lay within 0.001 to 1 nM.
For `CS(=O)(=O)CC(=O)N1CCc2c(cccc2Nc2ccc(Cl)c(-c3ncc(-c4ccccc4)[nH]3)c2)C1` [Compound 7], the IC50 by setting is: under setting [2], 0.25 nM; under setting [3], 0.001 to 1 nM.
Regarding `C[C@@H](O)C(=O)N1CCc2c(cccc2Nc2ccc(Cl)c(-c3ncc(-c4ccccc4)[nH]3)c2)C1` [Compound 8], the IC50 under setting [3] was 0.001 to 1 nM.
With `O=C(C(O)CO)N1CCc2c(cccc2Nc2ccc(Cl)c(-c3ncc(-c4ccccc4)[nH]3)c2)C1` (centres unmarked) [Compound 9], the IC50 under setting [3] lay within 0.001 to 1 nM.
Consider `CC(O)C(=O)N1CCc2c(cccc2Nc2ccc(Cl)c(-c3ncc(-c4ccccc4)[nH]3)c2)C1` (centres unmarked) [Compound 10], for which the IC50 under setting [3] was in the range of 0.001 to 1 nM.
For `CC(=O)N1CCC(N2CCc3c(cccc3Nc3ccc(Cl)c(-c4ncc(-c5ccccc5)[nH]4)c3)C2)CC1` [Compound 11], the IC50 under setting [3] fell in the range of 0.001 to 1 nM.
Consider `[O-][S+]1CCC(N2CCc3c(cccc3Nc3ccc(Cl)c(-c4ncc(-c5ccccc5)[nH]4)c3)C2)CC1` (centres unmarked) [Compound 12], for which, under setting [3], the IC50 was in the range of 0.001 to 1 nM.
Turning to `NS(=O)(=O)N1CCc2c(cccc2Nc2ccc(Cl)c(-c3ncc(-c4ccccc4)[nH]3)c2)C1` [Compound 13], the 50% inhibitory concentration (IC50) is 1.6 nM under setting [2] and 1 to 10 nM under setting [3].
On to `CC(C)(CO)C(=O)N1CCc2c(cccc2Nc2ccc(Cl)c(-c3ncc(-c4ccccc4)[nH]3)c2)C1` [Compound 14], for which the IC50 under setting [3] lay in the range of 0.001 to 1 nM.
For `COc1ccc2[nH]c(-c3cc(Nc4cccc5c4CCN(S(C)(=O)=O)C5)ccc3C)nc2c1` [Compound 15], under setting [3], the IC50 lay in the range of 0.001 to 1 nM.
In the case of `CN(C)c1ccc2nc(-c3cc(Nc4cccc5c4CCN(S(C)(=O)=O)C5)ccc3Cl)[nH]c2c1` [Compound 16], the IC50 is 3.8 nM under setting [2] and 1 to 10 nM under setting [3].
Turning to `O=S(=O)(NCCO)N1CCc2c(cccc2Nc2ccc(Cl)c(-c3ncc(-c4ccccc4)[nH]3)c2)C1` [Compound 17], under setting [3], the half-maximal inhibitory concentration (IC50) was in the range of 0.001 to 1 nM.
With `OC[C@H](O)CN1CCc2c(cccc2Nc2ccc(Cl)c(-c3ncc(-c4ccccc4)[nH]3)c2)C1` [Compound 18], the IC50 under setting [3] was 0.001 to 1 nM.
The same measure, in the same setting: for `C[S+]([O-])CC(=O)N1CCc2c(cccc2Nc2ccc(Cl)c(-c3ncc(-c4ccccc4)[nH]3)c2)C1` (centres unmarked) [Compound 19] the value was 0.001 to 1 nM; for `C[C@H](O)C(=O)N1CCc2c(cccc2Nc2ccc(Cl)c(-c3ncc(-c4ccccc4)[nH]3)c2)C1` [Compound 20], 1 to 10 nM.
Consider `CC1(C)CC(N2CCc3c(cccc3Nc3ccc(Cl)c(-c4ncc(-c5ccccc5)[nH]4)c3)C2)CC(C)(C)N1` [Compound 21], for which the IC50 by setting is: under setting [2], 0.86 nM; under setting [3], 0.001 to 1 nM.
Consider `Clc1ccc(Nc2cccc3c2CCN(C2CCCCC2)C3)cc1-c1ncc(-c2ccccc2)[nH]1` [Compound 22], for which the IC50 under setting [3] was 1 to 10 nM.
In the case of `Clc1ccc(Nc2cccc3c2CCN(CC2CCCCC2)C3)cc1-c1ncc(-c2ccccc2)[nH]1` [Compound 23], the IC50 is, setting by setting: under setting [2], 2 nM; under setting [3], 1 to 10 nM.
As for `CNS(=O)(=O)N1CCc2c(cccc2Nc2ccc(Cl)c(-c3ncc(-c4ccccc4)[nH]3)c2)C1` [Compound 25], the IC50 under setting [3] fell in the range of 1 to 10 nM.
As to `[O-][S+]1CCC([N+]2([O-])CCc3c(cccc3Nc3ccc(Cl)c(-c4ncc(-c5ccccc5)[nH]4)c3)C2)CC1` (centres unmarked) [Compound 26], under setting [3], the half-maximal inhibitory concentration (IC50) is 1 to 10 nM.
Still for that read-out and setting: for `O=C([C@@H](O)CO)N1CCc2c(cccc2Nc2ccc(Cl)c(-c3nc(-c4ccccc4)c[nH]3)c2)C1` [Compound 27] the value was 0.001 to 1 nM; for `CC1(C)OC[C@H](CN2CCC(N3CCc4c(cccc4Nc4ccc(Cl)c(-c5ncc(-c6ccccc6)[nH]5)c4)C3)CC2)O1` [Compound 28], 1 to 10 nM.
`Clc1ccc(Nc2cccc3c2CCN(C2CCOCC2)C3)cc1-c1ncc(-c2ccccc2)[nH]1` [Compound 29]: the IC50 under setting [3] fell in the range of 0.001 to 1 nM.
Consider `Clc1ccc(Nc2cccc3c2CCN(C2CCCCCC2)C3)cc1-c1ncc(-c2ccccc2)[nH]1` [Compound 30], for which the IC50 is, setting by setting: under setting [2], 1.2 nM; under setting [3], 1 to 10 nM.
Turning to `CCC(CC)N1CCC(N2CCc3c(cccc3Nc3ccc(Cl)c(-c4ncc(-c5ccccc5)[nH]4)c3)C2)CC1` [Compound 31], the IC50 under setting [3] was 0.001 to 1 nM.
For the compound `CCN1CCC(N2CCc3c(Nc4ccc(Cl)c(-c5ncc(-c6ccccc6)[nH]5)c4)cccc3C2=O)CC1` [Compound 32], the IC50 under setting [3] is 1 to 10 nM.
Take `O=C1CCC(N2CCc3c(cccc3Nc3ccc(Cl)c(-c4ncc(-c5ccccc5)[nH]4)c3)C2)CC1` [Compound 33]: the IC50 reads like this: under setting [2], 0.7 nM; under setting [3], 0.001 to 1 nM.
As for `OCC(CO)N1CCc2c(cccc2Nc2ccc(Cl)c(-c3ncc(-c4ccccc4)[nH]3)c2)C1` [Compound 34], the IC50 was 1.8 nM under setting [2] and 1 to 10 nM under setting [3].
For the compound `O=C1c2cccc(Nc3ccc(Cl)c(-c4ncc(-c5ccccc5)[nH]4)c3)c2CCN1C[C@H](O)CO` [Compound 35], the IC50 reads like this: under setting [2], 2.6 nM; under setting [3], 1 to 10 nM.
Consider `CC(C)N1CCC(N2CCc3c(cccc3Nc3ccc(Cl)c(-c4ncc(-c5ccccc5)[nH]4)c3)C2)CC1` [Compound 36], for which the concentration for half-maximal inhibition (IC50) under setting [3] was 0.001 to 1 nM.
Turning to `OC1CCC(N2CCc3c(cccc3Nc3ccc(Cl)c(-c4ncc(-c5ccccc5)[nH]4)c3)C2)CC1` (centres unmarked) [Compound 37], the IC50 runs as follows: under setting [2], 0.73 nM; under setting [3], 0.001 to 1 nM.
For `O=C([C@H](O)CO)N1CCc2c(cccc2Nc2ccc(Cl)c(-c3nc(-c4ccccc4)c[nH]3)c2)C1` [Compound 38], under setting [3], the half-inhibitory concentration (IC50) lay within 0.001 to 1 nM.
Same read-out and setting: for `Clc1ccc(Nc2cccc3c2CCN(CC2CCOCC2)C3)cc1-c1ncc(-c2ccccc2)[nH]1` [Compound 39] the value was 0.001 to 1 nM.
For the compound `OCC(O)CN1CCC(N2CCc3c(cccc3Nc3ccc(Cl)c(-c4ncc(-c5ccccc5)[nH]4)c3)C2)CC1` (centres unmarked) [Compound 40], the IC50 under setting [3] fell in the range of 0.001 to 1 nM.
Turning to `CN1CCC(N2CCc3c(cccc3Nc3ccc(Cl)c(-c4ncc(-c5ccccc5)[nH]4)c3)C2)CC1` [Compound 41], under setting [3], the IC50 is 1 to 10 nM.
Take `O=C(NCCO)N1CCc2c(cccc2Nc2ccc(Cl)c(-c3ncc(-c4ccccc4)[nH]3)c2)C1` [Compound 42]: the IC50 by setting is: under setting [2], 0.0017 nM; under setting [3], 0.001 to 1 nM.
Turning to `NC(=O)N1CCc2c(cccc2Nc2ccc(Cl)c(-c3ncc(-c4ccccc4)[nH]3)c2)C1` [Compound 43], the IC50 is 4.5 nM under setting [2] and 1 to 10 nM under setting [3].
For `O=C(O)CC(=O)N1CCc2c(cccc2Nc2ccc(Cl)c(-c3nc(-c4ccccc4)c[nH]3)c2)C1` [Compound 44], the IC50 under setting [3] was in the range of 1 to 10 nM.
Turning to `CC(C)(C)OC(=O)N1CCc2c(cccc2Nc2ccc(Cl)c(-c3ncc(-c4ccccc4)[nH]3)c2)C1` [Compound 45], the IC50 runs as follows: under setting [2], 3 nM; under setting [3], 1 to 10 nM.
As for `CC(C)N1CCc2c(cccc2Nc2ccc(Cl)c(-c3ncc(-c4ccccc4)[nH]3)c2)C1` [Compound 46], under setting [3], the concentration for half-maximal inhibition (IC50) lay in the range of 1 to 10 nM.
Take `C[S+]([O-])CCCN1CCc2c(cccc2Nc2ccc(Cl)c(-c3ncc(-c4ccccc4)[nH]3)c2)C1` (centres unmarked) [Compound 47]: the IC50 under setting [3] fell in the range of 1 to 10 nM.
For the compound `OC[C@H](O)[C@@H](O)CN1CCc2c(cccc2Nc2ccc(Cl)c(-c3ncc(-c4ccccc4)[nH]3)c2)C1` [Compound 48], the IC50 under setting [3] fell in the range of 1 to 10 nM.
With `[O-][n+]1ccc(N2CCc3c(cccc3Nc3ccc(Cl)c(-c4ncc(-c5ccccc5)[nH]4)c3)C2)cc1` [Compound 49], under setting [3], the IC50 was in the range of 1 to 10 nM.
The same measure, in the same setting: for `O=C(O)CCN1CCc2c(Nc3ccc(Cl)c(-c4nc(-c5ccccc5)c[nH]4)c3)cccc2C1=O` [Compound 50] the value was 10 to 100 nM.
Regarding `Clc1ccc(Nc2cccc3c2CCN(Cc2cccnc2)C3)cc1-c1ncc(-c2ccccc2)[nH]1` [Compound 51], the IC50 by setting is: under setting [2], 11 nM; under setting [3], 10 to 100 nM.
For `Cc1ccc(Nc2cccc3c2CCN(C2CCS(=O)(=O)CC2)C3)cc1-c1ncc(-c2cccnc2)[nH]1` [Compound 52], the IC50 under setting [1] lay in the range of 10 to 100 nM.
On to `O=C(O)CN1CCc2c(cccc2Nc2ccc(Cl)c(-c3nc(-c4ccccc4)c[nH]3)c2)C1` [Compound 53], for which the half-maximal inhibitory concentration (IC50) under setting [3] is 10 to 100 nM.
Take `CN(C)CC(C)(C)CN1CCc2c(cccc2Nc2ccc(Cl)c(-c3ncc(-c4ccccc4)[nH]3)c2)C1` [Compound 54]: the IC50 under setting [3] lay in the range of 0.001 to 1 nM.
For `CC(C)C(=O)N1CCc2c(cccc2Nc2ccc(Cl)c(-c3ncc(-c4ccccc4)[nH]3)c2)C1` [Compound 55], under setting [3], the IC50 fell in the range of 1 to 10 nM.
